In patent US20050197350A1, “Novel quinoline, tetrahydroquinazoline, and pyrimidine derivatives and methods of treatment related to the use thereof” (TAISHO PHARMACEUTICAL CO., LTD., priority 2003, published 2005):

test system: MCH receptors; experiment: MCH receptor activity class (method not given); details: class by percent of control at 10^-7 M or IC50

Q: With `CN(C)c1cc(N[C@H]2CC[C@@H](CNC(=O)c3ccccc3Br)CC2)nc2ccccc12` [compound 220] as the compound, how does the class read?
A: Its class is 3 (Class 3 The value of percent of control at 10^−7 M was more than 60% or the value of IC50 was more than 200 nM.).

Q: With `CN(C)c1cc(N[C@H]2CC[C@@H](CNC(=O)c3c(Cl)cccc3Cl)CC2)nc2ccccc12` [compound 221] as the compound, how does the class read?
A: Its class is 2 (Class 2: The value of percent of control at 10^−7 M was from 40% to 60% or the value of IC′50 was from 50 nM to 200 nM.).

Q: `CN(C)c1cc(N[C@H]2CC[C@@H](CNC(=O)c3ccccc3I)CC2)nc2ccccc12` [compound 222] was tested. Which class did it give?
A: The class was 3 (Class 3 The value of percent of control at 10^−7 M was more than 60% or the value of IC50 was more than 200 nM.).

Q: `Cc1ccccc1C(=O)NC[C@H]1CC[C@@H](Nc2cc(N(C)C)c3ccccc3n2)CC1` [compound 223] was tested. Which class did it give?
A: The class was 3 (Class 3 The value of percent of control at 10^−7 M was more than 60% or the value of IC50 was more than 200 nM.).

Q: Which class does the source give for `CN(C)c1cc(N[C@H]2CC[C@@H](CNC(=O)c3cccc(Cl)c3Cl)CC2)nc2ccccc12` [compound 224] here?
A: The class was 3 (Class 3 The value of percent of control at 10^−7 M was more than 60% or the value of IC50 was more than 200 nM.).

Q: How did the class turn out when `CN(C)c1cc(N[C@H]2CC[C@@H](CNC(=O)c3cc(F)ccc3Cl)CC2)nc2ccccc12` [compound 225] was run?
A: The class was 3 (Class 3 The value of percent of control at 10^−7 M was more than 60% or the value of IC50 was more than 200 nM.).

Q: Which class does the source give for `CN(C)c1cc(N[C@H]2CC[C@@H](CNC(=O)c3cccc4c3-c3ccccc3C4=O)CC2)nc2ccccc12` [compound 226] here?
A: The class was 3 (Class 3 The value of percent of control at 10^−7 M was more than 60% or the value of IC50 was more than 200 nM.).

Q: With `CN(C)c1cc(N[C@H]2CC[C@@H](CNC(=O)c3c(F)ccc(F)c3F)CC2)nc2ccccc12` [compound 227] as the compound, how does the class read?
A: Its class is 3 (Class 3 The value of percent of control at 10^−7 M was more than 60% or the value of IC50 was more than 200 nM.).

Q: Which class does the source give for `CN(C)c1cc(N[C@H]2CC[C@@H](CNC(=O)c3cccc(F)c3F)CC2)nc2ccccc12` [compound 228] here?
A: The class was 3 (Class 3 The value of percent of control at 10^−7 M was more than 60% or the value of IC50 was more than 200 nM.).

Q: With `CN(C)c1cc(N[C@H]2CC[C@@H](CNC(=O)c3c(F)cccc3F)CC2)nc2ccccc12` [compound 229] as the compound, how does the class read?
A: Its class is 3 (Class 3 The value of percent of control at 10^−7 M was more than 60% or the value of IC50 was more than 200 nM.).

Q: `CN(C)c1cc(N[C@H]2CC[C@@H](CNC(=O)c3c(F)cccc3C(F)(F)F)CC2)nc2ccccc12` [compound 230] was tested. Which class did it give?
A: Its class is 3 (Class 3 The value of percent of control at 10^−7 M was more than 60% or the value of IC50 was more than 200 nM.).

Q: For `Cc1cc(C)c(C(=O)NC[C@H]2CC[C@@H](Nc3cc(N(C)C)c4ccccc4n3)CC2)c(C)c1` [compound 231, N-[(cis-4-{[4-(dimethylamino)quinolin-2-yl]amino}cyclohexyl)methyl]-2,4,6-trimethylbenzamide], which class is on record?
A: Its class is 1 (Class 1: The value of percent of control at 10^−7 M was less than 40% or the value of IC50 was less than 50 nM.).

Q: With `CN(C)c1cc(N[C@H]2CC[C@@H](CNC(=O)c3c(F)cccc3Cl)CC2)nc2ccccc12` [compound 232] as the compound, how does the class read?
A: Its class is 3 (Class 3 The value of percent of control at 10^−7 M was more than 60% or the value of IC50 was more than 200 nM.).

Q: `CN(C)c1cc(N[C@H]2CC[C@@H](CNC(=O)c3c(Cl)cc(Cl)cc3Cl)CC2)nc2ccccc12` [compound 233] was tested. Which class did it give?
A: Its class is 1 (Class 1: The value of percent of control at 10^−7 M was less than 40% or the value of IC50 was less than 50 nM.).

Q: How did the class turn out when `CN(C)c1cc(N[C@H]2CC[C@@H](CNC(=O)/C=C/c3ccccc3Cl)CC2)nc2ccccc12` [compound 234, (2E)-3-(2-chlorophenyl)-N-[(cis-4-{[4-(dimethylamino)quinolin-2-yl]amino}cyclohexyl)methyl]acrylamide] was run?
A: Its class is 2 (Class 2: The value of percent of control at 10^−7 M was from 40% to 60% or the value of IC′50 was from 50 nM to 200 nM.).

Q: `Cc1ccc(Cl)c(C(=O)NC[C@H]2CC[C@@H](Nc3cc(N(C)C)c4ccccc4n3)CC2)c1F` [compound 235] was tested. Which class did it give?
A: The class was 3 (Class 3 The value of percent of control at 10^−7 M was more than 60% or the value of IC50 was more than 200 nM.).

Q: Which class does the source give for `CN(C)c1cc(N[C@H]2CC[C@@H](CNC(=O)c3c(F)ccc(F)c3Cl)CC2)nc2ccccc12` [compound 236] here?
A: Its class is 3 (Class 3 The value of percent of control at 10^−7 M was more than 60% or the value of IC50 was more than 200 nM.).

Q: With `Cc1cccc(C(=O)NC[C@H]2CC[C@@H](Nc3cc(N(C)C)c4ccccc4n3)CC2)c1C` [compound 237] as the compound, how does the class read?
A: The class was 3 (Class 3 The value of percent of control at 10^−7 M was more than 60% or the value of IC50 was more than 200 nM.).

Q: How did the class turn out when `COc1cccc(C(=O)N[C@H]2CC[C@@H](Nc3nccc(N(C)C)n3)CC2)c1` [compound 238, N-(cis-4-{[4-(dimethylamino)pyrimidin-2-yl]amino}cyclohexyl)-3-methoxybenzamide] was run?
A: The class was 2 (Class 2: The value of percent of control at 10^−7 M was from 40% to 60% or the value of IC′50 was from 50 nM to 200 nM.).

Q: With `CN(C)c1ccnc(N[C@H]2CC[C@@H](NC(=O)c3cccc(Br)c3)CC2)n1` [compound 239] as the compound, how does the class read?
A: Its class is 1 (Class 1: The value of percent of control at 10^−7 M was less than 40% or the value of IC50 was less than 50 nM.).

Q: Which class does the source give for `CN(C)c1ccnc(N[C@H]2CC[C@@H](NC(=O)c3ccc(Br)cc3)CC2)n1` [compound 240] here?
A: The class was 3 (Class 3 The value of percent of control at 10^−7 M was more than 60% or the value of IC50 was more than 200 nM.).

Q: How did the class turn out when `CN(C)c1ccnc(N[C@H]2CC[C@@H](NC(=O)c3ccc4nonc4c3)CC2)n1` [compound 241, N-(cis-4-{[4-(dimethylamino)pyrimidin-2-yl]amino}cyclohexyl)-2,1,3-benzoxadiazole-5-carboxamide] was run?
A: The class was 1 (Class 1: The value of percent of control at 10^−7 M was less than 40% or the value of IC50 was less than 50 nM.).

Q: With `CN(C)c1ccnc(N[C@H]2CC[C@@H](NC(=O)c3cccc(Cl)c3)CC2)n1` [compound 242] as the compound, how does the class read?
A: Its class is 1 (Class 1: The value of percent of control at 10^−7 M was less than 40% or the value of IC50 was less than 50 nM.).

Q: `CN(C)c1ccnc(N[C@H]2CC[C@@H](NC(=O)c3ccc(Cl)cc3)CC2)n1` [compound 243] was tested. Which class did it give?
A: Its class is 2 (Class 2: The value of percent of control at 10^−7 M was from 40% to 60% or the value of IC′50 was from 50 nM to 200 nM.).

Q: How did the class turn out when `CN(C)c1ccnc(N[C@H]2CC[C@@H](NC(=O)/C=C/c3ccccc3)CC2)n1` [compound 244] was run?
A: Its class is 3 (Class 3 The value of percent of control at 10^−7 M was more than 60% or the value of IC50 was more than 200 nM.).

Q: `CN(C)c1ccnc(N[C@H]2CC[C@@H](NC(=O)c3ccc(Cl)c([N+](=O)[O-])c3)CC2)n1` [compound 245, 4-chloro-N-(cis-4-{[4-(dimethylamino)pyrimidin-2-yl]amino}cyclohexyl)-3-nitrobenzamide] was tested. Which class did it give?
A: Its class is 1 (Class 1: The value of percent of control at 10^−7 M was less than 40% or the value of IC50 was less than 50 nM.).

Q: For `CN(C)c1ccnc(N[C@H]2CC[C@@H](NC(=O)Cc3ccc(Cl)cc3)CC2)n1` [compound 246], which class is on record?
A: The class was 3 (Class 3 The value of percent of control at 10^−7 M was more than 60% or the value of IC50 was more than 200 nM.).

Q: How did the class turn out when `CN(C)c1ccnc(N[C@H]2CC[C@@H](NC(=O)c3cccc(C#N)c3)CC2)n1` [compound 247] was run?
A: The class was 3 (Class 3 The value of percent of control at 10^−7 M was more than 60% or the value of IC50 was more than 200 nM.).

Q: For `CN(C)c1ccnc(N[C@H]2CC[C@@H](NC(=O)c3cc(Cl)cc(Cl)c3)CC2)n1` [compound 248], which class is on record?
A: Its class is 1 (Class 1: The value of percent of control at 10^−7 M was less than 40% or the value of IC50 was less than 50 nM.).

Q: `CN(C)c1ccnc(N[C@H]2CC[C@@H](NC(=O)c3ccc(Cl)c(Cl)c3)CC2)n1` [compound 249] was tested. Which class did it give?
A: The class was 1 (Class 1: The value of percent of control at 10^−7 M was less than 40% or the value of IC50 was less than 50 nM.).

Q: Which class does the source give for `CN(C)c1ccnc(N[C@H]2CC[C@@H](NC(=O)C(c3ccccc3)c3ccccc3)CC2)n1` [compound 250, N-(cis-4-{[4-(dimethylamino)pyrimidin-2-yl]amino}cyclohexyl)-2,2-diphenylacetamide] here?
A: Its class is 2 (Class 2: The value of percent of control at 10^−7 M was from 40% to 60% or the value of IC′50 was from 50 nM to 200 nM.).

Q: With `CN(C)c1ccnc(N[C@H]2CC[C@@H](NC(=O)c3ccc(F)c(F)c3)CC2)n1` [compound 251, N-(cis-4-{[4-(dimethylamino)pyrimidin-2-yl]amino}cyclohexyl)-3,4-difluorobenzamide] as the compound, how does the class read?
A: Its class is 1 (Class 1: The value of percent of control at 10^−7 M was less than 40% or the value of IC50 was less than 50 nM.).

Q: With `CN(C)c1ccnc(N[C@H]2CC[C@@H](NC(=O)c3cc(F)cc(F)c3)CC2)n1` [compound 252, N-(cis-4-{[4-(dimethylamino)pyrimidin-2-yl]amino}cyclohexyl)-3,5-difluorobenzamide] as the compound, how does the class read?
A: Its class is 2 (Class 2: The value of percent of control at 10^−7 M was from 40% to 60% or the value of IC′50 was from 50 nM to 200 nM.).

Q: `COc1ccc(OC)c(CC(=O)N[C@H]2CC[C@@H](Nc3nccc(N(C)C)n3)CC2)c1` [compound 253] was tested. Which class did it give?
A: The class was 3 (Class 3 The value of percent of control at 10^−7 M was more than 60% or the value of IC50 was more than 200 nM.).

Q: `CCSc1ncccc1C(=O)N[C@H]1CC[C@@H](Nc2nccc(N(C)C)n2)CC1` [compound 254] was tested. Which class did it give?
A: Its class is 3 (Class 3 The value of percent of control at 10^−7 M was more than 60% or the value of IC50 was more than 200 nM.).

Q: How did the class turn out when `CN(C)c1ccnc(N[C@H]2CC[C@@H](NC(=O)c3ccc(F)cc3)CC2)n1` [compound 255, N-(cis-4-{[4-(dimethylamino)pyrimidin-2-yl]amino}cyclohexyl)-4-fluorobenzamide] was run?
A: Its class is 3 (Class 3 The value of percent of control at 10^−7 M was more than 60% or the value of IC50 was more than 200 nM.).

Q: How did the class turn out when `CN(C)c1ccnc(N[C@H]2CC[C@@H](NC(=O)c3cc(F)cc(C(F)(F)F)c3)CC2)n1` [compound 256, N-(cis-4-{[4-(dimethylamino)pyrimidin-2-yl]amino}cyclohexyl)-3-fluoro-5-(trifluoromethyl)benzamide] was run?
A: The class was 2 (Class 2: The value of percent of control at 10^−7 M was from 40% to 60% or the value of IC′50 was from 50 nM to 200 nM.).

Q: How did the class turn out when `CN(C)c1ccnc(N[C@H]2CC[C@@H](NC(=O)c3cc(F)c(Cl)cc3Cl)CC2)n1` [compound 257] was run?
A: The class was 3 (Class 3 The value of percent of control at 10^−7 M was more than 60% or the value of IC50 was more than 200 nM.).
